Experiments:
Test in all cases: Ba/F3 drug screening, Cell Titer Glo, IC50 Mut/WT
Type in all cases: cell-based
EGFR I740dupIPVAK = details: Ba/F3 cells, EGFR I740dupIPVAK (PACC), Mut/WT
EGFR L858R T790M L718V = biological target: T1, EGFR L858R T790M L718V (Homo sapiens, UniProt P00533, L718V/L858R/T790M); details: T790M-like-3R, 72 hours
T1 construct: expressed in transfected cells; host or cells: Ba/F3

EGFR L858R/L718V = biological target: T2, EGFR L858R/L718V (Homo sapiens, UniProt P00533, L718V/L858R); details: Ba/F3 cells, EGFR L858R/L718V (PACC), Mut/WT
T2 construct: host or cells: Ba/F3
Protocol: (§1) Data represent the ratio of the IC50 value for a given TKI for cells with a PACC EGFR mutation to the IC50 value for cells with wildtype EGFR.
(§2) Ba/F3 cell generation, drug screening, and IC50 approximations. Ba/F3 cells were obtained as a gift from Dr. Gordon Mills (MD Anderson Cancer Center), and maintained in RPMI (Sigma) containing 10% FBS, 1% penicillin/streptomycin, and 10 ng/ml recombinant mIL-3 (R&D Biosystems). To establish stable Ba/F3 cell lines, Ba/F3 cells were transduced with retroviruses containing mutant EGFR plasmids for 12-24 hours.
(§3) After 48-72 hours of transduction, 2 μg/ml puromycin (Invitrogen) was added to Ba/F3 cell lines in complete RPMI. To select for EGFR positive cell lines, cells were stained with PE-EGFR (Biolegend) and sorted by FACS. After sorting, EGFR positive cells were maintained in RPMI containing 10% FBS, 1% penicillin/streptomycin, and 1 ng/ml EGF to support cell viability. Drug screening was performed as previously described^41,42. Shortly, cells were plated in 384-well plates (Greiner Bio-One) at 2000-3000 cells per well in technical triplicate. Seven different concentrations of TKIs or DMSO vehicle were added to reach a final volume of 40 μL per well. After 72 hours, 11 μL of Cell Titer Glo (Promega) was added to each well. Plates were incubated for a minimum of 10 minutes, and bioluminescence was determined using a FLUOstar OPTIMA plate reader (BMG LABTECH). Raw bioluminescence values were normalized to DMSO control treated cells, and values were plotted in GraphPad Prism. […] Drug screens were performed in technical triplicate on each plate and either duplicate or triplicate biological replicates.

EGFR Ex19del L718Q = biological target: T3, EGFR Ex19del L718Q (Homo sapiens, UniProt P00533, DEL746-750/L718Q); details: Ba/F3 cells, EGFR Ex19del L718Q (PACC), Mut/WT
T3 construct: expressed in transfected cells; host or cells: Ba/F3
Protocol: as §1, §2, §3

EGFR L861R = biological target: T4, EGFR L861R (Homo sapiens, UniProt P00533, L861R); details: Classical-Like, 72 hours
T4 construct: expressed in transfected cells; host or cells: Ba/F3 cells, retroviral pBabe-Puro vector (vector made by GeneScript from EGFR WT)

EGFR L718Q = biological target: T5, EGFR L718Q (Homo sapiens, UniProt P00533, L718Q); details: Ba/F3 cells, EGFR L718Q (PACC), Mut/WT
T5 construct: expressed in transfected cells; host or cells: Ba/F3
Protocol: as §1, §2, §3

EGFR A763insLQEA = biological target: T6, EGFR A763insLQEA (Homo sapiens, UniProt P00533, INS763LQEA); details: Classical-Like, 72 hours
T6 construct: expressed in transfected cells; host or cells: Ba/F3 cells, retroviral pBabe-Puro vector
Protocol: Data represent the ratio of the IC50 value for a given TKI for cells with a classical-like EGFR mutation to the IC50 value for cells with wildtype EGFR.
as §2
After 48-72 hours of transduction, 2 μg/ml puromycin (Invitrogen) was added to Ba/F3 cell lines in complete RPMI. To select for EGFR positive cell lines, cells were stained with PE-EGFR (Biolegend) and sorted by FACS. After sorting, EGFR positive cells were maintained in RPMI containing 10% FBS, 1% penicillin/streptomycin, and 1 ng/ml EGF to support cell viability. […] Shortly, cells were plated in 384-well plates (Greiner Bio-One) at 2000-3000 cells per well in technical triplicate. Seven different concentrations of TKIs or DMSO vehicle were added to reach a final volume of 40 μL per well. After 72 hours, 11 μL of Cell Titer Glo (Promega) was added to each well. Plates were incubated for a minimum of 10 minutes, and bioluminescence was determined using a FLUOstar OPTIMA plate reader (BMG LABTECH). Raw bioluminescence values were normalized to DMSO control treated cells, and values were plotted in GraphPad Prism. […] Drug screens were performed in technical triplicate on each plate and either duplicate or triplicate biological replicates.

EGFR Ex19del T790M = biological target: T7, EGFR Ex19del T790M (Homo sapiens, UniProt P00533, DEL746-750/T790M); details: T790M-like-3S, 72 hours
T7 construct: expressed in transfected cells; host or cells: Ba/F3
Protocol: (§4) Data represent the ratio of the IC50 value for a given TKI for cells with a T790M-like-3S EGFR mutation to the IC50 value for cells with wildtype EGFR.
as §2, §3

EGFR G719A L861Q = biological target: T8, EGFR G719A L861Q (Homo sapiens, UniProt P00533, G719A/L861Q); details: Ba/F3 cells, EGFR G719A L861Q (PACC), Mut/WT
T8 construct: expressed in transfected cells; host or cells: Ba/F3
Protocol: as §1, §2, §3

EGFR L833V = biological target: T9, EGFR L833V (Homo sapiens, UniProt P00533, L833V); details: Classical-Like, 72 hours
T9 construct: expressed in transfected cells; host or cells: Ba/F3 cells, retroviral pBabe-Puro vector

EGFR L858R/T790M/L718Q = biological target: T10, EGFR L858R/T790M/L718Q (Homo sapiens, UniProt P00533, L718Q/L858R/T790M); details: T790M-like-3R, 72 hours
T10 construct: expressed in transfected cells; host or cells: Ba/F3

EGFR G719A = biological target: T11, EGFR G719A (Homo sapiens, UniProt P00533, G719A); details: Ba/F3 cells, EGFR G719A (PACC), Mut/WT
T11 construct: expressed in transfected cells; host or cells: Ba/F3
Protocol: as §1, §2, §3

EGFR R776H = biological target: T12, EGFR R776H (Homo sapiens, UniProt P00533, R776H); details: Ba/F3 cells, EGFR R776H (PACC), Mut/WT
T12 construct: host or cells: Ba/F3
Protocol: as §1, §2, §3

EGFR Ex19del G796S = biological target: T13, EGFR Ex19del G796S (Homo sapiens, UniProt P00533, DEL746-750/G796S); details: Ba/F3 cells, EGFR Ex19del G796S (PACC), Mut/WT
T13 construct: expressed in transfected cells; host or cells: Ba/F3

EGFR D761N = biological target: T14, EGFR D761N (Homo sapiens, UniProt P00533, D761N); details: Classical-Like, 72 hours
T14 construct: expressed in transfected cells; host or cells: Ba/F3 cells, retroviral pBabe-Puro vector

EGFR Ex19del T790M L718V = biological target: T15, EGFR Ex19del T790M L718V (Homo sapiens, UniProt P00533, DEL746-750/L718V/T790M); details: T790M-like-3S, 72 hours
T15 construct: expressed in transfected cells; host or cells: Ba/F3
Protocol: as §4, §2, §3

EGFR L747P = biological target: T16, EGFR L747P (Homo sapiens, UniProt P00533, L747P); details: Ba/F3 cells, EGFR L747P (PACC), Mut/WT
T16 construct: expressed in transfected cells; host or cells: Ba/F3

EGFR N771dupN G724S = biological target: T17, EGFR N771dupN G724S (Homo sapiens, UniProt P00533, DUP771-771/G724S); details: Ex20, 72 hours
T17 construct: expressed in transfected cells; host or cells: Ba/F3 cells, retroviral pBabe-Puro vector (vector made by GeneScript from EGFR G724S, c.2313_2314insAAC)
Protocol: Data represent the ratio of the IC50 value for a given TKI for cells with an ex20ins EGFR mutation to the IC50 value for cells with wildtype EGFR.
as §2
After 48-72 hours of transduction, 2 μg/ml puromycin (Invitrogen) was added to Ba/F3 cell lines in complete RPMI. To select for EGFR positive cell lines, cells were stained with PE-EGFR (Biolegend) and sorted by FACS. After sorting, EGFR positive cells were maintained in RPMI containing 10% FBS, 1% penicillin/streptomycin, and 1 ng/ml EGF to support cell viability. Drug screening was performed as previously described^41,42. Shortly, cells were plated in 384-well plates (Greiner Bio-One) at 2000-3000 cells per well in technical triplicate. Seven different concentrations of TKIs or DMSO vehicle were added to reach a final volume of 40 μL per well. After 72 hours, 11 μL of Cell Titer Glo (Promega) was added to each well. Plates were incubated for a minimum of 10 minutes, and bioluminescence was determined using a FLUOstar OPTIMA plate reader (BMG LABTECH). Raw bioluminescence values were normalized to DMSO control treated cells, and values were plotted in GraphPad Prism. […] Drug screens were performed in technical triplicate on each plate and either duplicate or triplicate biological replicates. […] Statistical differences between groups were determined by ANOVA as described in the figure legends.

EGFR E709K = biological target: T18, EGFR E709K (Homo sapiens, UniProt P00533, E709K); details: Ba/F3 cells, EGFR E709K (PACC), Mut/WT
T18 construct: expressed in transfected cells; host or cells: Ba/F3
Protocol: as §1, §2, §3

EGFR S768I/V769L = biological target: T19, EGFR S768I/V769L (Homo sapiens, UniProt P00533, S768I/V769L); details: Ba/F3 cells, EGFR S768I/V769L (PACC), Mut/WT
T19 construct: host or cells: Ba/F3

EGFR L747S = biological target: T20, EGFR L747S (Homo sapiens, UniProt P00533, L747S); details: Ba/F3 cells, EGFR L747S (PACC), Mut/WT
T20 construct: expressed in transfected cells; host or cells: Ba/F3

EGFR T790M = biological target: T21, EGFR T790M (Homo sapiens, UniProt P00533, T790M); details: T790M-like-3S, 72 hours
T21 construct: expressed in transfected cells; host or cells: Ba/F3
Protocol: as §4, §2, §3

EGFR L858R T790M L792H = biological target: T22, EGFR L858R T790M L792H (Homo sapiens, UniProt P00533, L792H/L858R/T790M); details: T790M-like-3S, 72 hours
T22 construct: expressed in transfected cells; host or cells: Ba/F3

EGFR L858R/L792H = biological target: T23, EGFR L858R/L792H (Homo sapiens, UniProt P00533, L792H/L858R); details: Ba/F3 cells, EGFR L858R/L792H (PACC), Mut/WT
T23 construct: expressed in transfected cells; host or cells: Ba/F3

C=CC(=O)N1CC[C@@H](Oc2nc(Nc3ccc(N4CCC(N5CCN(C)CC5)CC4)cc3)c(C(N)=O)nc2CC)C1 [Naquotinib]
ratio of the IC50 value for cells with a PACC EGFR mutation to the IC50 value for cells with wildtype EGFR (EGFR I740dupIPVAK): 0.5025 | ratio of IC50 for cells with mutant EGFR to IC50 for cells with wildtype EGFR (Mut/WT) (EGFR L858R T790M L718V): 0.6413 | ratio of the IC50 value for cells with a PACC EGFR mutation to the IC50 value for cells with wildtype EGFR (EGFR L858R/L718V): 3.358 | ratio of the IC50 value for cells with a PACC EGFR mutation to the IC50 value for cells with wildtype EGFR (EGFR Ex19del L718Q): 0.05586 | ratio of IC50 for cells with mutant EGFR to IC50 for cells with wildtype EGFR (Mut/WT) (EGFR L861R): 0.09054 | ratio of the IC50 value for cells with a PACC EGFR mutation to the IC50 value for cells with wildtype EGFR (EGFR L718Q): 5.448 | ratio of IC50 for cells with mutant EGFR to IC50 for cells with wildtype EGFR (Mut/WT) (EGFR A763insLQEA): 0.3419 | ratio of IC50 for cells with mutant EGFR to IC50 for cells with wildtype EGFR (Mut/WT) (EGFR Ex19del T790M): 0.009604 | ratio of the IC50 value for cells with a PACC EGFR mutation to the IC50 value for cells with wildtype EGFR (EGFR G719A L861Q): 0.03136 | ratio of IC50 for cells with mutant EGFR to IC50 for cells with wildtype EGFR (Mut/WT) (EGFR L833V): 0.02478 | ratio of IC50 for cells with mutant EGFR to IC50 for cells with wildtype EGFR (Mut/WT) (EGFR L858R/T790M/L718Q): 0.6815 | ratio of the IC50 value for cells with a PACC EGFR mutation to the IC50 value for cells with wildtype EGFR (EGFR G719A): 0.1344 | ratio of the IC50 value for cells with a PACC EGFR mutation to the IC50 value for cells with wildtype EGFR (EGFR R776H): 0.5095 | ratio of the IC50 value for cells with a PACC EGFR mutation to the IC50 value for cells with wildtype EGFR (EGFR Ex19del G796S): 1.137 | ratio of IC50 for cells with mutant EGFR to IC50 for cells with wildtype EGFR (Mut/WT) (EGFR D761N): 0.1966 | ratio of IC50 for cells with mutant EGFR to IC50 for cells with wildtype EGFR (Mut/WT) (EGFR Ex19del T790M L718V): 0.02994 | ratio of the IC50 value for cells with a PACC EGFR mutation to the IC50 value for cells with wildtype EGFR (EGFR L747P): 3.507 | ratio of IC50 for cells with mutant EGFR to IC50 for cells with wildtype EGFR (Mut/WT) (EGFR N771dupN G724S): 2.781 | ratio of the IC50 value for cells with a PACC EGFR mutation to the IC50 value for cells with wildtype EGFR (EGFR E709K): 0.2663 | ratio of the IC50 value for cells with a PACC EGFR mutation to the IC50 value for cells with wildtype EGFR (EGFR S768I/V769L): 1.734 | ratio of the IC50 value for cells with a PACC EGFR mutation to the IC50 value for cells with wildtype EGFR (EGFR L747S): 0.8911 | ratio of IC50 for cells with mutant EGFR to IC50 for cells with wildtype EGFR (Mut/WT) (EGFR T790M): 0.4037 | ratio of IC50 for cells with mutant EGFR to IC50 for cells with wildtype EGFR (Mut/WT) (EGFR L858R T790M L792H): 0.03529 | ratio of the IC50 value for cells with a PACC EGFR mutation to the IC50 value for cells with wildtype EGFR (EGFR L858R/L792H): 0.2624

From US20240384350A1, “METHODS OF TREATING CANCER WITH KINASE INHIBITORS” (BOARD OF REGENTS, THE UNIVERSITY OF TEXAS SYSTEM, priority 2021, published 2024)
